Calls of active or inactive are those of the source. How the calls were made is not given here.

What is called TD50 is the 50% point of the dose-response relation for the toxic effect studied.

This data set deals with rodent lifetime carcinogenesis bioassay, tumor incidence TD50. The experiment in a line: chronic cancer bioassays in animals – CPDB, compiled studies (AID 1745844).

`FCCl`: the TD50 is, setting by setting: (rat, strain Alpk:APfSD, females, by gavage, site: stomach, lesion: carcinoma, dosed 52 weeks, study length 108 weeks) 2710 mg/kg/day; (rat, strain Alpk:APfSD, females, by gavage, site: stomach, lesion: fibrosarcoma, dosed 52 weeks, study length 108 weeks) 119 mg/kg/day; (rat, strain Alpk:APfSD, females, by gavage, site: stomach, lesion: sarcoma, dosed 52 weeks, study length 108 weeks) 2710 mg/kg/day; (rat, strain Alpk:APfSD, females, by gavage, site: stomach, lesion: several types, types named in the paper, dosed 52 weeks, study length 108 weeks) 26.5 mg/kg/day; (rat, strain Alpk:APfSD, females, by gavage, site: stomach, lesion: squamous-cell carcinoma, dosed 52 weeks, study length 108 weeks) 69.4 mg/kg/day; (rat, strain Alpk:APfSD, males, by gavage, site: stomach, lesion: fibrosarcoma, dosed 52 weeks, study length 100 weeks) 88.1 mg/kg/day. Besides, the TD50 is 28.5 mg/kg/day (rat, strain Alpk:APfSD, males, by gavage, site: stomach, lesion: several types, types named in the paper, dosed 52 weeks, study length 100 weeks) and 46.9 mg/kg/day (rat, strain Alpk:APfSD, males, by gavage, site: stomach, lesion: squamous-cell carcinoma, dosed 52 weeks, study length 100 weeks).
In the case of `Cc1ccccc1S(N)(=O)=O`, the TD50 was 8520 mg/kg/day (rat, strain Charles River CD (Sprague-Dawley), females, in feed, site: liver, lesion: Kupffer-cell sarcoma, dosed 142 weeks, study length 142 weeks); 21700 mg/kg/day (rat, strain Charles River CD (Sprague-Dawley), females, in feed, site: liver, lesion: neoplastic nodule, dosed 142 weeks, study length 142 weeks); 12.2 mg/kg/day (rat, strain Charles River CD (Sprague-Dawley), females, in feed, site: mammary gland, lesion: adenocarcinoma, dosed 142 weeks, study length 142 weeks); 17200 mg/kg/day (rat, strain Charles River CD (Sprague-Dawley), males, in feed, site: liver, lesion: angiosarcoma, dosed 142 weeks, study length 142 weeks); 35900 mg/kg/day (rat, strain Charles River CD (Sprague-Dawley), males, in feed, site: liver, lesion: neoplastic nodule, dosed 142 weeks, study length 142 weeks); 375 mg/kg/day (rat, strain Sprague-Dawley, both sexes, in feed, site: all sites, lesion: leukemia, dosed 133 weeks, study length 142 weeks). Further, the TD50 runs as follows: (rat, strain Sprague-Dawley, both sexes, in feed, site: any site (literature study), lesion: malignant tumor, dosed 133 weeks, study length 142 weeks) 13300 mg/kg/day; (rat, strain Sprague-Dawley, both sexes, in feed, site: urinary bladder, lesion: several types, types named in the paper, dosed 133 weeks, study length 142 weeks) 3960 mg/kg/day. Moreover, the carcinogen call (rat, strain Wistar, females, in drinking water, site: liver, lesion: hepatocellular carcinoma, dosed 102 weeks, study length 102 weeks) was “negative (inactive)”.
Regarding `Nc1ccc([N+](=O)[O-])cc1O`, the TD50 by setting is: (mouse, strain B6C3F1, females, by gavage, site: any site (literature study), lesion: several types, types named in the paper, dosed 103 weeks, study length 104 weeks) 5760 mg/kg/day (inactive); (mouse, strain B6C3F1, females, by gavage, site: lung, lesion: alveolar/bronchiolar adenoma + alveolar/bronchiolar carcinoma, dosed 103 weeks, study length 104 weeks) 807000 mg/kg/day; (rat, strain Fischer 344, males, by gavage, site: adrenal medulla, lesion: pheochromocytoma + pheochromocytoma, malignant, dosed 103 weeks, study length 104 weeks) 101 mg/kg/day; (rat, strain Fischer 344, males, by gavage, site: any site (literature study), lesion: several types, types named in the paper, dosed 103 weeks, study length 104 weeks) 33.6 mg/kg/day; (rat, strain Fischer 344, males, by gavage, site: liver, lesion: hepatocellular adenoma + hepatocellular carcinoma + neoplastic nodule, dosed 103 weeks, study length 104 weeks) 1560 mg/kg/day; (rat, strain Fischer 344, males, by gavage, site: pancreas, lesion: acinar-cell adenoma, dosed 103 weeks, study length 104 weeks) 111 mg/kg/day. Further, the TD50 amounted to 107 mg/kg/day (rat, strain Fischer 344, males, by gavage, site: pancreas, lesion: acinar-cell carcinoma + acinar-cell adenoma, dosed 103 weeks, study length 104 weeks); 393 mg/kg/day (rat, strain Fischer 344, males, by gavage, site: pancreatic islets, lesion: islet-cell carcinoma, dosed 103 weeks, study length 104 weeks); 392 mg/kg/day (rat, strain Fischer 344, males, by gavage, site: preputial gland, lesion: adenoma, NOS + carcinoma, NOS, dosed 103 weeks, study length 104 weeks); 562 mg/kg/day (rat, strain Fischer 344, males, by gavage, site: preputial gland, lesion: carcinoma, NOS, dosed 103 weeks, study length 104 weeks); 28.6 mg/kg/day (rat, strain Fischer 344, males, by gavage, site: testis, lesion: interstitial-cell tumor, dosed 103 weeks, study length 104 weeks). Moreover, the carcinogen call reads like this: (mouse, strain B6C3F1, males, by gavage, site: any site (literature study), lesion: several types, types named in the paper, dosed 103 weeks, study length 104 weeks) “negative (inactive)”; (rat, strain Fischer 344, females, by gavage, site: any site (literature study), lesion: several types, types named in the paper, dosed 103 weeks, study length 104 weeks) “negative (inactive)”.
In the case of `N#CS`, the carcinogen call (rat, strain Fischer 344, females, in drinking water, site: liver, lesion: one or several types, types not named, dosed 112 weeks, study length 130 weeks) was “negative (inactive)”. Further, the TD50 runs as follows: (rat, strain Fischer 344, males, in drinking water, site: liver, lesion: one or several types, types not named, dosed 112 weeks, study length 130 weeks) 2760 mg/kg/day (inactive); (rat, strain Fischer 344, males, in drinking water, site: skin and subcutis, lesion: one or several types, types not named, dosed 112 weeks, study length 130 weeks) 224 mg/kg/day (inactive).
Turning to `CCCCC/C=N/N(C)C=O`, the TD50 reads like this: (mouse, strain Swiss, females, by gavage, site: liver, lesion: hepatocellular carcinoma, dosed 52 weeks, study length 122 weeks) 180 mg/kg/day; (mouse, strain Swiss, females, by gavage, site: liver, lesion: hepatoma, benign, dosed 52 weeks, study length 122 weeks) 23.3 mg/kg/day; (mouse, strain Swiss, females, by gavage, site: liver, lesion: several types, types named in the paper, dosed 52 weeks, study length 122 weeks) 19.9 mg/kg/day; (mouse, strain Swiss, females, by gavage, site: lung, lesion: adenocarcinoma, dosed 52 weeks, study length 122 weeks) 8.73 mg/kg/day; (mouse, strain Swiss, females, by gavage, site: lung, lesion: adenoma, dosed 52 weeks, study length 122 weeks) 4.68 mg/kg/day; (mouse, strain Swiss, females, by gavage, site: lung, lesion: several types, types named in the paper, dosed 52 weeks, study length 122 weeks) 2.96 mg/kg/day. The TD50 runs as follows: (mouse, strain Swiss, males, by gavage, site: liver, lesion: hepatocellular carcinoma, dosed 52 weeks, study length 128 weeks) 115 mg/kg/day; (mouse, strain Swiss, males, by gavage, site: liver, lesion: hepatoma, benign, dosed 52 weeks, study length 128 weeks) 45.4 mg/kg/day; (mouse, strain Swiss, males, by gavage, site: liver, lesion: several types, types named in the paper, dosed 52 weeks, study length 128 weeks) 31.4 mg/kg/day; (mouse, strain Swiss, males, by gavage, site: lung, lesion: adenocarcinoma, dosed 52 weeks, study length 128 weeks) 5.52 mg/kg/day; (mouse, strain Swiss, males, by gavage, site: lung, lesion: adenoma, dosed 52 weeks, study length 128 weeks) 6.63 mg/kg/day; (mouse, strain Swiss, males, by gavage, site: lung, lesion: several types, types named in the paper, dosed 52 weeks, study length 128 weeks) 1.92 mg/kg/day. Also, the TD50 is, setting by setting: (mouse, strain Swiss, males, by gavage, site: preputial gland, lesion: several types, types named in the paper, dosed 52 weeks, study length 128 weeks) 6.51 mg/kg/day; (mouse, strain Swiss, males, by gavage, site: preputial gland, lesion: squamous-cell carcinoma, dosed 52 weeks, study length 128 weeks) 8.03 mg/kg/day; (mouse, strain Swiss, males, by gavage, site: preputial gland, lesion: squamous-cell papilloma, dosed 52 weeks, study length 128 weeks) 93.3 mg/kg/day.
